In PMC7470163, “Effects of ticagrelor on the pharmacokinetics of rivaroxaban in rats” (Pharmaceutical Biology, 2020):
Where two headings read alike, the source gives them in different places. Each block holds one molecule with its values, some of them ahead of it.

Legend:
CYP2J2 = tested on: CYP2J2; design: method as in Kvasnicka et al. [2017]; conditions: ref Kvasnicka et al. [2017]; cited from earlier work
[1] = design: method as in Mueck et al. [2013]; conditions: co-administration of ketoconazole; ref Mueck et al. [2013]; cited from earlier work
CYP3A4 = tested on: CYP3A4; design: method as in Kvasnicka et al. [2017]; conditions: ref Kvasnicka et al. [2017]; cited from earlier work
[2] = In vivo pharmacokinetic experiment: oral rivaroxaban in rats with or without ticagrelor pre-treatment (plasma, UPLC-MS/MS); design: species or system Sprague-Dawley rats; conditions: for AUC(0-t) / AUC(0-inf) / Cmax / half-life / MRT inf / MRT last: po; for MRT inf: read-out: MRT (0–∞); for MRT last: read-out: MRT(0–t); for CLint scaled: read-out: CL (text: intrinsic clearance) (converted)
Experimental: Chromatographic separation was performed using the Acquity UPLC system (Waters Corp., Milford, MA, USA) and ACQUITY UPLC HSS T3 column (2.1 × 100 mm, 1.8 μm) at 40 °C. The mobile phase comprising acetonitrile (A) and 0.1% formic acid water (B) was set with a flow rate of 0.40 mL/min. The gradient programme was applied as follows: 0–0.5 min, 30% A; 0.5–1 min, 30–95% A; 1–2 min, 95% A; […], 95% A; 2.5–2.6 min, 95–30% A; 2.6–3 min, 30% A. The total time required for analysis was 3 min. The sample manager underwent a strong wash (methanol water, 50/50, V/V) and a weak wash (methanol water, 10/90, V/V) after each injection.
XEVO TQD triple quadrupole mass spectrometer was equipped with electrospray ionization (ESI), and multiple-reaction monitoring (MRM) mode was selected for quantization. The precursor ion and product ion were m/z 435.93→144.81 for rivaroxaban and m/z 285.1→193.1 for diazepam (internal standard, IS), respectively. The optimal MS parameters were defined as follows: the cone voltages were set at 35 V and 50 V for rivaroxaban and IS; the collision energies were set at 30 V and 25 V for rivaroxaban and IS. Masslynx 4.1 software (Waters Corp., Milford, MA, USA) was used for data acquisition, and the UPLC-MS/MS chromatogram of blank plasma that was spiked with rivaroxaban and IS was shown below (Figure 2).
Ten specific pathogen-free (SPF) grade Sprague–Dawley rats (male, 220 ± 20 g) were provided by Wenzhou Medical University Laboratory Animal Research Centre. All experimental procedures and protocols were reviewed and approved by the Animal Care and Use Committee of Wenzhou Medical University and were in accordance with the Guide for the Care and Use of Laboratory Animals (ID Number: wydw2019-650). Ten rats were randomly divided into two groups: the ticagrelor group (n = 5) and the control group (n = 5). Rats were bred at 25 °C with 60 ± 5% humidity and a 12 h dark/light cycle. Enough tap water and normal chow were provided ad libitum. The rats were placed under the above conditions for one week before initiating the experiment.
The ticagrelor group was pre-treated with ticagrelor by oral gavage at a dose of 10 mg/kg/day (dissolved in CMC-Na solution) for two weeks before the administration of rivaroxaban. The control group also received equal amounts of the vehicle (CMC-Na solution). Rivaroxaban was dissolved in dimethyl sulfoxide (DMSO) and was then diluted with polyethylene glycol 200 so that DMSO accounted for 5% of the total volume. Each group of rats was given an oral gavage of rivaroxaban at a dose of 10 mg/kg, and then blood was collected via the rat’s tail vein for analysis at 0.083, 0.25, 0.5, 1, 2, 3, 4, 6, 8, 12 and 24 h. Samples were collected into 1.5 mL centrifuge tubes and were immediately centrifuged at 4000 rpm for 10 min.
Every 100 µL of rat plasma was added with 200 µL of acetonitrile in 0.5 μg/mL of IS, followed by vortex mixing for 1 min. After centrifugation at 13000 rpm for 15 min, 5 µL of supernatant was prepared for UPLC-MS/MS system to analyse.
The GraphPad (version 8.0; GraphPad Software Inc., San Diego, CA, USA) was applied to calculate IC50 and plot plasma concentration-time curves. The pharmacokinetic parameters using non-compartmental analysis were calculated by DAS (version 3.2.8; Wenzhou Medical University, China). Statistical comparisons within groups were conducted by SPSS (version 25.0; SPSS Inc., Chicago, IL, USA), using Student’s t-test. Values of p < 0.05 were considered statistically significant.

[3] = design: method as in Abrams and Emerson [2009]; conditions: phase I trials; ref Abrams and Emerson [2009]; cited from earlier work
[4] = design: method as in Mega et al. [2012]; conditions: low-dose rivaroxaban (2.5 mg or 5 mg twice daily) co-administered with DAPT; ref Mega et al. [2012]; cited from earlier work
[5] = design: method as in Eriksson et al. [2009]; Altena et al. [2014]; conditions: with CYP3A4 inducer rifampicin; ref Eriksson et al. [2009]; Altena et al. [2014]; cited from earlier work
[6] = Enzyme kinetics of rivaroxaban metabolism in rat liver microsomes; type: in vitro ADME, Sprague-Dawley rat; conditions: Sprague-Dawley, rat, rat liver microsomes, pH 7.4, RLMs 0.5 mg/mL, 37 °C, 1 mM NADPH, R squared 0.979
Experimental: (§1) The pooled rat liver microsomes (RLMs) were obtained from 8 rats, which were weighed and homogenized with cold […] phosphate-buffered saline (PBS) containing 0.25 mM sucrose. After centrifuging at 11000 rpm for 15 min, the supernatants were separated and transferred into new tubes for another 15 min centrifugation at 11000 rpm. Then ultracentrifugation was performed at 10000 rpm at 4 °C for 1 h, and the microsomal pellets were resuspended with cold 0.01 mM PBS and stored at −80 °C. The protein concentration of RLMs was determined using the Bradford Protein Assay Kit (Thermo Scientific, Waltham, MA, USA). […] The incubation time was 30 min. Incubations were initiated following a 5 min pre-incubation in a shaking water bath at 37 °C. 1 mM NADPH was added to initiate the reaction in a final volume of 200 μL. The reaction was stopped immediately by cooling to −80 °C. After that, 20 μL IS working solution and 200 μL acetonitrile were added. Centrifugation was performed at 13000 rpm for 5 min after vortexing for 1 min, and the supernatant was collected. Each incubation sample study was performed in separate EP tubes, performed in triplicate and analysed by UPLC-MS/MS. We selected 2 μL of RLMs with a concentration of 0.5 mg/mL in PBS for 30 minutes as the condition for enzyme kinetic studies. […]

[7] = tested on: rat liver microsomes (RLMs); assay: as above; type: in vitro ADME, Sprague-Dawley rat; conditions: RLMs 0.5 mg/mL, 30 min, 37 °C, 1 mM NADPH, R squared 0.979
Experimental: as §1

[8] = design: method as in Becker et al. [2011]; conditions: PLATO study; ref Becker et al. [2011]; cited from earlier work
[9] = design: method as in Teng and Butler [2013]; conditions: concomitant use of ticagrelor; ref Teng and Butler [2013]; cited from earlier work
[10] = design: method as in Butler and Teng [2011]; conditions: oral administration of ticagrelor, healthy volunteers; ref Butler and Teng [2011]; cited from earlier work
[11] = tested on: rivaroxaban metabolism in RLMs; assay: In vitro interaction study: inhibition of rivaroxaban metabolism by ticagrelor in RLMs; type: in vitro ADME, Sprague-Dawley rat; conditions: read-out: IC50 (ticagrelor decreased rivaroxaban metabolic clearance)
Experimental: The pooled rat liver microsomes (RLMs) were obtained from 8 rats, which were weighed and homogenized with cold […] phosphate-buffered saline (PBS) containing 0.25 mM sucrose. After centrifuging at 11000 rpm for 15 min, the supernatants were separated and transferred into new tubes for another 15 min centrifugation at 11000 rpm. Then ultracentrifugation was performed at 10000 rpm at 4 °C for 1 h, and the microsomal pellets were resuspended with cold 0.01 mM PBS and stored at −80 °C. The protein concentration of RLMs was determined using the Bradford Protein Assay Kit (Thermo Scientific, Waltham, MA, USA).
Ticagrelor was applied as the inhibitor to determine the half-maximal inhibitory concentration (IC50). The incubation mixture in a total volume of 200 μL contained 0.5 mg/mL of RLMs, 100 mM potassium phosphate buffer (pH 7.4), rivaroxaban (20 μM), ticagrelor (1, 2.5, 5, 10, 25, 50 and 100 μM) and 1 mM NADPH. After preincubation in a shaking water bath at 37 °C for 5 min, NADPH was added to initiate the reaction in a final volume of 200 μL. […]
The GraphPad (version 8.0; GraphPad Software Inc., San Diego, CA, USA) was applied to calculate IC50 and plot plasma concentration-time curves. The pharmacokinetic parameters using non-compartmental analysis were calculated by DAS (version 3.2.8; Wenzhou Medical University, China). […]

[12] = tested on: CYP3A4 (4-hydroxylation of midazolam); design: method as in Zhou et al. [2011]; conditions: read-out: IC50 (inhibition of 4-hydroxylation of midazolam); in vitro; ref Zhou et al. [2011]; cited from earlier work
[13] = male, Sprague-Dawley, rat, plasma, 10 mg/kg, rivaroxaban 10 mg/kg oral, rats pre-treated with ticagrelor 10 mg/kg/day for 14 days
[14] = male, Sprague-Dawley, rat, plasma, 10 mg/kg, rivaroxaban 10 mg/kg oral, rats, control group (no ticagrelor)
[15] = male, Sprague-Dawley, rat, plasma, 10 mg/kg, rivaroxaban 10 mg/kg oral, rats, without ticagrelor pre-treatment
[16] = male, Sprague-Dawley, rat, plasma, rivaroxaban 10 mg/kg oral, rats, control group (no ticagrelor)
[17] = rats, oral ticagrelor 10 mg/kg/day for 14 days vs control
[18] = rivaroxaban 10 mg/kg oral, rats pre-treated with ticagrelor 10 mg/kg/day for 14 days

AUC(0-t) ([2]; male, Sprague-Dawley, rat, plasma, 10 mg/kg, rivaroxaban 10 mg/kg oral single dose, rats pre-treated with ticagrelor 10 mg/kg/day oral for 14 days, n=5, mean ± SD): 3480 ± 754 ng·h/mL
AUC(0-t) ([2]; male, Sprague-Dawley, rat, plasma, 10 mg/kg, rivaroxaban 10 mg/kg oral single dose, rats, control group (vehicle, no ticagrelor), n=5, mean ± SD): 1060 ± 291 ng·h/mL
AUC(0-inf) [2, 13]: 3580 ± 736 ng·h/mL
Cmax [2, 13]: 691 ± 238 ng/mL
half-life [2, 13]: 5.12 ± 1.65 h
MRT inf [2, 13]: 5.97 ± 1.11 h
MRT last [2, 13]: 5.18 ± 0.91 h
AUC(0-inf) [2, 14]: 1070 ± 299 ng·h/mL
Cmax [2, 14]: 221 ± 53.3 ng/mL
half-life [2, 14]: 2.64 ± 0.72 h
MRT inf [2, 14]: 4.41 ± 0.79 h
MRT last [2, 14]: 4.32 ± 0.66 h
AUC(0-t) ([2]; male, Sprague-Dawley, rat, plasma, 10 mg/kg, rivaroxaban 10 mg/kg oral, rats with ticagrelor pre-treatment 10 mg/kg/day for 14 days): 3480 ± 754 ng·h/mL
AUC(0-inf) [2, 15]: 1070 ± 299 ng·h/mL
AUC(0-t) [2, 15]: 1060 ± 291 ng·h/mL
AUC(0-inf) ([2]; male, Sprague-Dawley, rat, plasma, rivaroxaban 10 mg/kg oral, rats with ticagrelor pre-treatment 10 mg/kg/day for 14 days): 3580 ± 736 ng·h/mL
CLint scaled ([2]; male, Sprague-Dawley, rat, plasma, rivaroxaban 10 mg/kg oral, rats pre-treated with ticagrelor 10 mg/kg/day for 14 days): 48.2 mL/min/kg
Tmax [2, 16]: 2 ± 0.71 h
CLint scaled [2, 16]: 166 mL/min/kg
increase of AUC value of rivaroxaban [2, 17]: 3.3 fold
increase of Cmax value of rivaroxaban [2, 17]: 3.1 fold
T max [2, 18]: 2.00 ± 0.71 h
Vz [2, 18]: 21.89 ± 9.00 L/kg
Vz ([2]; rivaroxaban 10 mg/kg oral, rats, control group (no ticagrelor)): 36.23 ± 5.48 L/kg
Km at 30 min [6]: 19.1 µM
Vmax [7]: 3.37 pmol/min/mg
SMILES: O=C(NC[C@H]1CN(c2ccc(N3CCOCC3=O)cc2)C(=O)O1)c1ccc(Cl)s1 [Rivaroxaban]
share of total rivaroxaban elimination involving CYP2J2 (CYP2J2): about 14%
increase in Cmax value of rivaroxaban [1]: 1.7 fold
increase in the mean AUC value of rivaroxaban [1]: 2.6 fold
share of total rivaroxaban elimination involving CYP3A4 (CYP3A4): about 18%
time to peak plasma concentration (Tmax) [3]: 1.5 to 4 h
risk of intracranial hemorrhage [4]: 0.6%
risk of major bleeding [4]: 2.1%
reduction in the systemic exposure of rivaroxaban [5]: 50%

SMILES: COC(=O)[C@H](c1ccccc1Cl)N1CCc2sccc2C1 [clopidogrel]
non-CABG major bleeding [8]: 3.8%
non-procedure-related major bleeding [8]: 2.3%

SMILES: C[C@H]1O[C@@H](O[C@H]2[C@@H](O)C[C@H](O[C@H]3[C@@H](O)C[C@H](O[C@H]4CC[C@@]5(C)[C@H](CC[C@@H]6[C@@H]5C[C@@H](O)[C@]5(C)[C@@H](C7=CC(=O)OC7)CC[C@]65O)C4)O[C@@H]3C)O[C@@H]2C)C[C@H](O)[C@@H]1O [digoxin]
increase of digoxin AUC [9]: 28%
increase of digoxin Cmax [9]: 75%

SMILES: C#C[C@]1(O)CC[C@H]2[C@@H]3CCc4cc(O)ccc4[C@H]3CC[C@@]21C [ethinyloestradiol]
increase of AUC0–t of ethinyloestradiol [10]: 20%
increase of Cmax of ethinyloestradiol [10]: 31%
increase of Cmin of ethinyloestradiol [10]: 20%

IC50 [11]: 14 µM
SMILES: CCCSc1nc(N[C@@H]2C[C@H]2c2ccc(F)c(F)c2)c2nnn([C@@H]3C[C@H](OCCO)[C@@H](O)[C@H]3O)c2n1 [ticagrelor, Ticagrelor]
non-CABG major bleeding [8]: 4.5%
non-procedure-related major bleeding [8]: 3.1%
